We go through 13 compounds from ChEMBL document CHEMBL1240454, “1,3-Dioxolane-based ligands incorporating a lactam or imide moiety: structure-affinity/activity relationship at alpha1-adrenoceptor subtypes and at 5-HT1A receptors” (Eur J Med Chem, 2010).

Molecules are shown by their SMILES.

For test [1], the target named is T1, Alpha-1A adrenergic receptor (Rattus norvegicus) (UniProt P43140).
T1 sequence (whole entry): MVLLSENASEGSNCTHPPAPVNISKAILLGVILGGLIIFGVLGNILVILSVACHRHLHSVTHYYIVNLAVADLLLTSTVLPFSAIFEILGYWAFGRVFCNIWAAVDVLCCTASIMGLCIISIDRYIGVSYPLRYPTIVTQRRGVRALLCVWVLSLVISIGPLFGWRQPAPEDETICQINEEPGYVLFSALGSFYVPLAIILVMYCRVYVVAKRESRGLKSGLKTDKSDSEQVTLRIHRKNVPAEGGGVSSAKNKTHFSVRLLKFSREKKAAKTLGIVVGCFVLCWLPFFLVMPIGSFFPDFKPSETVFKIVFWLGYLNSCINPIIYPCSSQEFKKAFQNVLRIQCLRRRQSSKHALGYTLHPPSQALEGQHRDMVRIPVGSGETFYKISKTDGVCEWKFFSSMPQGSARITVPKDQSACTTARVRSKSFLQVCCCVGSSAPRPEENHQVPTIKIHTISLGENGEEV
The experiment in a line: Antagonist activity at adrenergic alpha1A receptor in Wistar rat prostatic vas deferens assessed as inhibition of (-)-noradrenaline-induced tissue contraction treated 30 mins before (-)noradrenalin challenge. It counts as functional, tissue-based.

A short description of test [2]: Selectivity for adrenergic alpha1 receptor over 5HT1A receptor.
The target of test [3] is T2, 5-hydroxytryptamine receptor 1A (Homo sapiens, UniProt P08908).
T2 sequence (P08908 whole entry): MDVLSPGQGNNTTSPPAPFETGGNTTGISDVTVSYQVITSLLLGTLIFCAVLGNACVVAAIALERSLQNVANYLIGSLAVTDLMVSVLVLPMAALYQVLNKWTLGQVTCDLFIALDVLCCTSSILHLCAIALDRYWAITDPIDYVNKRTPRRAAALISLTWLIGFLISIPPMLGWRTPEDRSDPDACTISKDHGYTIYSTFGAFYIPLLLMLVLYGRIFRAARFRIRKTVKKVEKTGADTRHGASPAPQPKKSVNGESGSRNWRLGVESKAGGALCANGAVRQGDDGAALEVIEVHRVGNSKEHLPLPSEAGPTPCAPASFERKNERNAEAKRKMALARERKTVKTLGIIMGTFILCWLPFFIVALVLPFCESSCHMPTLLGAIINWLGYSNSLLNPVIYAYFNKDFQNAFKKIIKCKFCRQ
Briefly: Binding affinity to 5HT1A receptor.

The target in test [4] is T3, Alpha-1B adrenergic receptor (Rattus norvegicus) (UniProt P15823).
T3 sequence (whole entry): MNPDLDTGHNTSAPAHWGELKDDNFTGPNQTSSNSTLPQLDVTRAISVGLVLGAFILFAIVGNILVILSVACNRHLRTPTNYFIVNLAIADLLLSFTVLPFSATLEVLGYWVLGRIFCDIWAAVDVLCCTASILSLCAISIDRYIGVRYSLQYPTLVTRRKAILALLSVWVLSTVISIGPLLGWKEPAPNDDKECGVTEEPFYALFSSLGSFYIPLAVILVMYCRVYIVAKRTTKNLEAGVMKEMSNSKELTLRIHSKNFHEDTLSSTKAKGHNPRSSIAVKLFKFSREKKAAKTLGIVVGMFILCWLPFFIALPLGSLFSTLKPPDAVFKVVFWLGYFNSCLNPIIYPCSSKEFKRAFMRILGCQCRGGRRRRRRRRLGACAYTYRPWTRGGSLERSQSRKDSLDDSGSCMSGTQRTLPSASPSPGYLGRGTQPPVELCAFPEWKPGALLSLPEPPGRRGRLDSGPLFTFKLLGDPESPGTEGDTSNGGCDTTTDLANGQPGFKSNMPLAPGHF
The experiment in a line: Antagonist activity at adrenergic Alpha-1B receptor in Wistar rat spleen assessed as inhibition of […]-induced tissue contraction treated 30 mins before […] challenge. Type of test: functional, tissue-based.

Test [5] has as its target T4, 5-hydroxytryptamine receptor 1A (Homo sapiens) (UniProt P08908).
T4 sequence (whole entry): T2 sequence (P08908 whole entry)
Briefly: Agonist activity at human cloned 5HT1A receptor expressed in human HeLa cells assessed as stimulation of [35S]GTPgammaS binding after 20 mins by liquid scintillation counting. It counts as functional, cell-based. On the technique in general: GTPγS resists hydrolysis and so accumulates on activated G proteins.

Test [6] concerns the target T4, 5-hydroxytryptamine receptor 1A (Homo sapiens). Briefly: Agonist activity at human cloned 5HT1A receptor expressed in human HeLa cells assessed as stimulation of [35S]GTPgammaS binding after 20 mins by liquid scintillation counting relative to maximal 5HT response. It counts as functional, cell-based.
Test [7] shares this target. The conditions noted are these: HeLa.

For the compound `COc1ccccc1N1CCN(CC2OCC(c3ccccc3)(c3ccccc3)O2)CC1` (stereo unspecified), the values for the pKb in test [1] and in test [4] were 8.24 and 6.69, respectively. In addition, in test [2], the Selectivity ratio amounted to 100. In addition, the Ki in test [3] is 15.1 nM. Moreover, the pD2 in test [5] came to 8.3. The Emax in test [6] was determined as 16%.

Turning to `COc1ccccc1N1CCN(C[C@H]2CO[C@@](CN3CCCCC3=O)(c3ccccc3)O2)CC1`, the values for the negative-log Kb (pKb) in test [1], in test [7] and in test [4] were 7.3, 7.38 and 7.93, respectively.

In the case of `COc1ccccc1N1CCN(C[C@@H]2CO[C@@](CN3C(=O)CC4(CCCC4)CC3=O)(c3ccccc3)O2)CC1` (relative stereo), the negative-log Kb (pKb) worked out at 7.29 in test [1] and 7.47 in test [4]. Moreover, the pD2 in test [5] turned out to be 7.98. In test [6], the Emax came out at 60%.

Regarding `COc1ccccc1N1CCN(C[C@H]2CO[C@](CN3CCCC3=O)(c3ccccc3)O2)CC1` (relative stereo), the values for the pKb in test [1], in test [7] and in test [4] were 7.94, 7.16 and 8.29, respectively.

As for `COc1ccccc1N1CCN(C[C@@H]2CO[C@](CN3CCCC3=O)(c3ccccc3)O2)CC1` (relative stereo), the negative logarithm of the Kb (pKb) was found to be 7.34 in test [1] and 8.17 in test [4]. Also, in test [5], the pD2 amounted to 7.14. In test [6], the Emax was found to be 34%.

As for `COc1ccccc1N1CCN(C[C@@H]2CO[C@@](CN3CCCCC3=O)(c3ccccc3)O2)CC1` (relative stereo), the pKb amounted to 7.32 in test [1], 7.39 in test [7] and 8.3 in test [4].

As for `COc1ccccc1N1CCN(C[C@H]2CO[C@@](CN3CCCCCC3=O)(c3ccccc3)O2)CC1` (relative stereo), the pKb was found to be 8.97 in test [1], 7.25 in test [7] and 8.42 in test [4].

As for `COc1ccccc1N1CCN(C[C@@H]2CO[C@@](CN3CCCCCC3=O)(c3ccccc3)O2)CC1` (relative stereo), the pKb in test [1] was 7.18; in test [4], 8.08. In addition, in test [5], the pD2 came to 6.57. Also, in test [6], the maximal effect (Emax) stood at 39%.

Turning to `COc1ccccc1N1CCN(C[C@H]2CO[C@@](CN3C(=O)CCC3=O)(c3ccccc3)O2)CC1` (relative stereo), the pKb in test [1] stood at 7.45; in test [4] it was 7.04. Besides, the pD2 in test [5] was determined as 7.05. Further, the maximum response (Emax) in test [6] amounted to 45%.

Take `COc1ccccc1N1CCN(C[C@@H]2CO[C@@](CN3C(=O)CCC3=O)(c3ccccc3)O2)CC1` (relative stereo): the pKb is 7.32 in test [1] and 7.11 in test [4].

Consider `COc1ccccc1N1CCN(C[C@H]2CO[C@@](CN3C(=O)CCCC3=O)(c3ccccc3)O2)CC1` (relative stereo), for which the pKb amounted to 7.09 in test [1] and 7.12 in test [4]. Further, the pD2 in test [5] was found to be 7.23. In addition, in test [6], the maximal effect (Emax) is 34%.

As to `COc1ccccc1N1CCN(C[C@@H]2CO[C@@](CN3C(=O)CCCC3=O)(c3ccccc3)O2)CC1` (relative stereo), the pKb amounted to 7.36 in test [1] and 7.35 in test [4].

As to `COc1ccccc1N1CCN(C[C@H]2CO[C@@](CN3C(=O)CC4(CCCC4)CC3=O)(c3ccccc3)O2)CC1` (relative stereo), the negative logarithm of the Kb (pKb) in test [1] worked out at 7.72; in test [4], 7.4. The pD2 in test [5] is 7.8. For the same compound, the maximum response (Emax) in test [6] came to 49%.

The term pKb denotes −log10 of the Kb, conventionally taken in molar units. The term Ki denotes the equilibrium dissociation constant of an inhibitor or competing ligand from its target. The low end stands for higher affinity, the high end for lower affinity. Usually Emax stands for the size of the effect at its maximum, as opposed to the concentration needed.
